Reference: ChEMBL document CHEMBL6134888, “Challenging the "Undruggable"─Targeting STAT3 but Identifying Potent TrkA-Targeted Inhibitors” (J Med Chem, 2025)
The source made the active and inactive calls. The calls are words filed in the database; no cut-off is given here.

Experiments:
[1] = biological target: T1, High affinity nerve growth factor receptor (Homo sapiens, UniProt P04629); details: dose 100.0 nM
Description: Inhibition of TRKA (unknown origin) at 100 nM relative to control

[2] = test system: KM12; experiment: cells; details: Homo sapiens, KM12, 72 h
Description: Cytotoxicity against human KM12 cells assessed as inhibition of cell viability incubated for 72 hrs by resazurin based analysis

[3] = biological target: T1, High affinity nerve growth factor receptor; details: dose 100.0 nM; remark: listed apart in the source
Description: Inhibition of TRKA (unknown origin) at 100 nM ScanElect kinase assay relative to control

[4] = test system: LS174T; experiment: Cytotoxicity against human LS174T cells assessed as effect on cell viability incubated for 72 hrs by resazurin based analysis
[5] = biological target: Proto-oncogene tyrosine-protein kinase Src (Homo sapiens, UniProt P12931); experiment: Inhibition of SRC (unknown origin) by Z-LYTE Kinase assay
[6] = test system: MDA-MB-231; experiment: Cytotoxicity against human MDA-MB-231 cells assessed as effect on cell viability incubated for 72 hrs by resazurin based analysis; details: MDA-MB-231, 72 h
[7] = biological target: Tyrosine-protein kinase JAK2 (Homo sapiens, UniProt O60674); experiment: Inhibition of JAK2 (unknown origin) by Z-LYTE Kinase assay
[8] = biological target: Signal transducer and activator of transcription 3 (Homo sapiens) (UniProt P40763); experiment: Induction of thermal stabilization of recombinant STAT3 (127 to 668 residues)(unknown origin) assessed as change in melting temperature incubated for 3 hrs by SYPRO orange dye based DSF analysis
[9] = biological target: Signal transducer and activator of transcription 3 (Homo sapiens) (UniProt P40763); experiment: Induction of thermal stabilization of recombinant STAT3 (127 to 668 residues)(unknown origin) incubated for 3 hrs by SYPRO orange dye based DSF analysis; details: dose 10-100 µM
[10] = biological target: T1, High affinity nerve growth factor receptor; details: dose 10.0 nM
Description: Inhibition of TRKA (unknown origin) at 10 nM by Z-LYTE Kinase assay relative to control

[11] = biological target: T1, High affinity nerve growth factor receptor; details: dose 100.0 nM; remark: listed apart in the source
Description: Inhibition of TRKA (unknown origin) at 100 nM by Z-LYTE Kinase assay relative to control

[12] = biological target: Signal transducer and activator of transcription 3 (Homo sapiens) (UniProt P40763); experiment: Binding affinity to STAT3 (unknown origin) SH2 domain by FP assay
[13] = biological target: L-lactate dehydrogenase A chain (Homo sapiens, UniProt P00338); experiment: Inhibition of LDHA (unknown origin)
[14] = biological target: Signal transducer and activator of transcription 3 (Homo sapiens) (UniProt P40763); experiment: Induction of thermal stabilization of STAT3 (unknown origin) at 100 uM by thermal shift assay
[15] = biological target: Signal transducer and activator of transcription 3 (Homo sapiens) (UniProt P40763); experiment: Induction of thermal stabilization of recombinant STAT3 (127 to 668 residues)(unknown origin) assessed as reduction in fluorescence intensity incubated for 3 hrs by SYPRO orange dye based DSF analysis; details: dose 100.0 µM
[16] = biological target: BDNF/NT-3 growth factors receptor (Homo sapiens, UniProt Q16620); experiment: Binding affinity to TRKB (unknown origin) assessed as dissociation constant by KINOMEscan assay
[17] = biological target: Signal transducer and activator of transcription 3 (Homo sapiens) (UniProt P40763); experiment: Inhibition of STAT3 in oncostatin M-stimulated human U3A cells at 20 uM pretreated with compound for 1 hr followed by oncostatin M induction and measured after 6 hrs by luciferase assay relative to control; assay type: cell-based

Chain of Signal transducer and activator of transcription 3 (Homo sapiens) (P40763 whole entry, the tested form may be a part): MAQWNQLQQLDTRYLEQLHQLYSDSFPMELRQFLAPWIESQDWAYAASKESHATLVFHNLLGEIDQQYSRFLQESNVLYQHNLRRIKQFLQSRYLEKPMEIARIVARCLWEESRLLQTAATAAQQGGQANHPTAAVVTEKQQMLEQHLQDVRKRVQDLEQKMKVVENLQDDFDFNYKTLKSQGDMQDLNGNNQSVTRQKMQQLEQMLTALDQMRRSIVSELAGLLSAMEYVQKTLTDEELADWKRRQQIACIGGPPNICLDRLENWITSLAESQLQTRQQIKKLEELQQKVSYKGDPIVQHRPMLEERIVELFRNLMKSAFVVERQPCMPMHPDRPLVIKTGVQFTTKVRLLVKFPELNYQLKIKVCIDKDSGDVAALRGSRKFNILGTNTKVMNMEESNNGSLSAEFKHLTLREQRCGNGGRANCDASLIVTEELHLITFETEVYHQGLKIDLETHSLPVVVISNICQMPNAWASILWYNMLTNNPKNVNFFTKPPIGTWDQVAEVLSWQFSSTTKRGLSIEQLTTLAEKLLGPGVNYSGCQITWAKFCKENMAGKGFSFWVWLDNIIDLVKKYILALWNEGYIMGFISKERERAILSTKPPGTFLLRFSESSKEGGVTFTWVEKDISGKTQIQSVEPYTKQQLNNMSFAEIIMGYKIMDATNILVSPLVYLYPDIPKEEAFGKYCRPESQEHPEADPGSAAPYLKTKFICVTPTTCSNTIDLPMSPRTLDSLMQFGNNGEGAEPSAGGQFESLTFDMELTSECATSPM
T1 sequence (P04629 33-796 limits assumed): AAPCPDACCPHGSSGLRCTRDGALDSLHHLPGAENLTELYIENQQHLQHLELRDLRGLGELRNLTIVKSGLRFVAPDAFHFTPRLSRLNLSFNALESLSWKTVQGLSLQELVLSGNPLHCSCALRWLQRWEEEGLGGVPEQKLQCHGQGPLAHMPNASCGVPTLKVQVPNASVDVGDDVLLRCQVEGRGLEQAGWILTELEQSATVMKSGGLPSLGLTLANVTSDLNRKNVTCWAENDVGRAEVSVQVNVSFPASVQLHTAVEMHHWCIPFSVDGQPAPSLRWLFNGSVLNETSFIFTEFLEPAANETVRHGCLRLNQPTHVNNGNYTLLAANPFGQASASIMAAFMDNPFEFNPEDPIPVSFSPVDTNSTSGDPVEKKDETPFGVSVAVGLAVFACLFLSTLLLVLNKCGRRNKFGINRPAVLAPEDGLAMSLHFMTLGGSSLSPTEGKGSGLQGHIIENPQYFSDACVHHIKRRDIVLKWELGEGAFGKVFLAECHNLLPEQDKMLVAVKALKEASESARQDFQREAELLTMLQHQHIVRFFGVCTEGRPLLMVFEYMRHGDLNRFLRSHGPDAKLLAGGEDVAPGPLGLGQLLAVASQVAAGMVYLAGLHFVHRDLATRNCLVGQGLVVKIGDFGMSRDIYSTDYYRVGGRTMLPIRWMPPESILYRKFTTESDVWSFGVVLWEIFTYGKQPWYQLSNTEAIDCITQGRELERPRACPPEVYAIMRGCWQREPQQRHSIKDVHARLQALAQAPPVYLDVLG
Chain of Tyrosine-protein kinase JAK2 (O60674 whole entry, the tested form may be a part): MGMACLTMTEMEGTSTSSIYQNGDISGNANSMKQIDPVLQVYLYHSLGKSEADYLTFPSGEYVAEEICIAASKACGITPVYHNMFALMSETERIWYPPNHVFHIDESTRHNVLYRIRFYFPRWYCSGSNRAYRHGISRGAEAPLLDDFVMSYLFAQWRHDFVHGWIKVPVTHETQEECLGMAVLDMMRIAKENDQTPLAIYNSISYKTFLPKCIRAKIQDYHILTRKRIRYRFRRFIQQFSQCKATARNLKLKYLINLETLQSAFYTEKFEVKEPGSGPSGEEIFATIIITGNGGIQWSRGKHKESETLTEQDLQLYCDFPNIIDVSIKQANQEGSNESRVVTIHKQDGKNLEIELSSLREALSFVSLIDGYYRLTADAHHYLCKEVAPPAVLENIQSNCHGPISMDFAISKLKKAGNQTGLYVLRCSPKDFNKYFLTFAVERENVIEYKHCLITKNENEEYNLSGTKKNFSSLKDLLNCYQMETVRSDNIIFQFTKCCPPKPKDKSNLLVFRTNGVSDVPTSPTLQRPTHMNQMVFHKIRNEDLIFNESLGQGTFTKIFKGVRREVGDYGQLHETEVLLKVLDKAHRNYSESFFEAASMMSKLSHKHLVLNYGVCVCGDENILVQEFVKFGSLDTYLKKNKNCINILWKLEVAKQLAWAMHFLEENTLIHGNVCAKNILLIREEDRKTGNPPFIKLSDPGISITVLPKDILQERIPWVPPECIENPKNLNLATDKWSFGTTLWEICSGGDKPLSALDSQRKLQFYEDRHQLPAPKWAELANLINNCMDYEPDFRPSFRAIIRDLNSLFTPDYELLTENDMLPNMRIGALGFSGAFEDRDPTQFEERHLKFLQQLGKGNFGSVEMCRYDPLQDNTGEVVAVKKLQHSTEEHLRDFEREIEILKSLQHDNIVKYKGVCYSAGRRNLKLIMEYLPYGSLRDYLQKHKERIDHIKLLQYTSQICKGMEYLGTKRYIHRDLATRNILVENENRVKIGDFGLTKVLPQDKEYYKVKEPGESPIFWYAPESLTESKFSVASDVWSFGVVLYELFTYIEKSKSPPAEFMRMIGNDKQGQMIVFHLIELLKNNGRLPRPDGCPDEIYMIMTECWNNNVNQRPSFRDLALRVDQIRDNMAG
Chain of Proto-oncogene tyrosine-protein kinase Src (P12931 2-536 limits assumed): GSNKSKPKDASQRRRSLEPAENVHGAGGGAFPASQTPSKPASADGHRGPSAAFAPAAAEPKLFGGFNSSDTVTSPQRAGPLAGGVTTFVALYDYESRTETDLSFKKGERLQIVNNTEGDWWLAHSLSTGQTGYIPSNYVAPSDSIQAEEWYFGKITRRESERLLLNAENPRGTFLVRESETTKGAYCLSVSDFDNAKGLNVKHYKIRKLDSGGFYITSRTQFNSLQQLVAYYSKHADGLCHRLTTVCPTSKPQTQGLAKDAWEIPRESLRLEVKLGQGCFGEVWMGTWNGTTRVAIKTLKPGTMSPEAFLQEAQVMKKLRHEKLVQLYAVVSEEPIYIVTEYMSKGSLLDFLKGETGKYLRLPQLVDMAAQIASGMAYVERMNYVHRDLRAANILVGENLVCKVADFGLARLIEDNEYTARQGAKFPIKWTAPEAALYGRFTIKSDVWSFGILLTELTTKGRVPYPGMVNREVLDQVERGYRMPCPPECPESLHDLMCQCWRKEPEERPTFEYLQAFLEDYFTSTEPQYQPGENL
Chain of BDNF/NT-3 growth factors receptor (Q16620 whole entry): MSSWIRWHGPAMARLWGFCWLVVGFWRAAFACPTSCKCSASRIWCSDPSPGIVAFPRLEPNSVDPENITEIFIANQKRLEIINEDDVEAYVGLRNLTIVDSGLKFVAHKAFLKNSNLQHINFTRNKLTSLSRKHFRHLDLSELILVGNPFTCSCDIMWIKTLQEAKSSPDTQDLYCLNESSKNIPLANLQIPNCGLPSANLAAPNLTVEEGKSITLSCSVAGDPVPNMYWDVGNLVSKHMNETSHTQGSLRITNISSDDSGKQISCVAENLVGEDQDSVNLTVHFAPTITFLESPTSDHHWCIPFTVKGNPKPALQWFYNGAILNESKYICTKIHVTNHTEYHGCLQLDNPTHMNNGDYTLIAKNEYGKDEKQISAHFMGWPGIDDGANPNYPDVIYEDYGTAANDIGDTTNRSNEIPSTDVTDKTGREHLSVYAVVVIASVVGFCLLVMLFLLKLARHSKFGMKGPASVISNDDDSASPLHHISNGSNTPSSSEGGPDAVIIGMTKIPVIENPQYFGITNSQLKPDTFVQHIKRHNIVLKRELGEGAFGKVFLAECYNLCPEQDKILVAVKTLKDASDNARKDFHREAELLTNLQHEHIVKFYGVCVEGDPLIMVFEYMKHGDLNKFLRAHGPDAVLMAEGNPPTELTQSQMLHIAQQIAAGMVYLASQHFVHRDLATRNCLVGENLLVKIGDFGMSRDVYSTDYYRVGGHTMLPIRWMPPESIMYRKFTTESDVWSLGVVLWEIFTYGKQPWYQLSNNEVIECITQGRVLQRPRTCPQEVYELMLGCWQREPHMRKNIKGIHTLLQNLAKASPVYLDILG

## CN(C)c1cccc(-c2cnc(N)c(NCc3cccnc3)n2)c1
[1]
  inhibition: 50%
[2]
  IC50: 3700 nM
[3]
  inhibition: 31%

## C[C@@H](Nc1nc(-c2cccc(N(C)C)c2)cnc1N)c1ccccc1
[4]
  IC50: > 10000 nM
[5]
  IC50: 1110 nM
[6]
  IC50: > 10000 nM
[2]
  IC50: < 300 nM
[7]
  IC50: 530 nM

## CN(C)c1cccc(-c2cnc(N)c(NCc3cccc(-c4ccccc4)c3)n2)c1
[1]
  inhibition: 42%
[3]
  inhibition: 5%

## CN(C)c1cccc(-c2cnc(N)c(NCc3cccc(C(F)(F)F)c3)n2)c1
[1]
  inhibition: 28%
[3]
  inhibition: 4%

## CN(C)c1cccc(-c2cnc(N)c(NCc3ccccc3)n2)c1
[1]
  inhibition: 79%
[3]
  inhibition: 21%

## COC(=O)c1cccc(CNc2nc(-c3cccc(N(C)C)c3)cnc2N)c1
[1]
  inhibition: 48%
[3]
  inhibition: 6%

## C[C@@H](Nc1nc(-c2cc(C(F)(F)F)cc(C(F)(F)F)c2)cnc1N)c1ccccc1
[8]
  ΔTm: 0.9 °C
[9]
  Activity: Dose-dependent-effect

## C[C@@H](Nc1nc(-c2cccc(C(=O)N(C)C)c2)cnc1N)c1ccccc1
[10]
  inhibition: 34%
[11]
  inhibition: 74%

## C[C@H](Nc1nc(-c2cc(C(F)(F)F)cc(C(F)(F)F)c2)cnc1N)c1ccccc1
[8]
  ΔTm: 0.9 °C
[9]
  Activity: Dose-dependent-effect

## C[C@H](Nc1nc(-c2cccc(C(=O)N(C)C)c2)cnc1N)c1ccccc1
[10]
  inhibition: 10%
[11]
  inhibition: 0%

## Cc1ccc(CNc2nc(-c3cccc(N(C)C)c3)cnc2N)cc1C
[1]
  inhibition: 35%
[3]
  inhibition: 6%

## Cc1cccc(CNc2nc(-c3cccc(N(C)C)c3)cnc2N)c1
[1]
  inhibition: 26%
[3]
  inhibition: 6%

## Nc1ncc(-c2cc(C(F)(F)F)cc(C(F)(F)F)c2)nc1NCc1ccco1
[8]
  ΔTm: 0.9 °C
[9]
  Activity: Dose-dependent-effect

## COC(=O)c1cccc(-c2cnc(N)c(NC(C)c3ccccc3)n2)c1 (racemic)
[12]
  Activity: Active
[13]
  IC50: 4000 nM
[1]
  inhibition: 55%
[14]
  Activity: Active
[15]
  Activity: Dose-dependent-effect
[3]
  inhibition: 28%

## CC(Nc1nc(-c2cccc(C(=O)N(C)C)c2)cnc1N)c1ccccc1 (racemic)
[1]
  inhibition: 67%
[2]
  IC50: < 300 nM
[3]
  inhibition: 41%

## CC(=O)Nc1cccc(-c2cnc(N)c(NC(C)c3ccccc3)n2)c1 (racemic)
[5]
  IC50: 1560 nM
[16]
  Kd: 60 nM
[7]
  IC50: 361 nM

## CC(Nc1nc(-c2cc(C(F)(F)F)cc(C(F)(F)F)c2)cnc1N)c1ccccc1 (racemic)
[1]
  inhibition: 10%
[14]
  Activity: Active
[17]
  inhibition: 40%
[2]
  IC50: 5300 nM
[15]
  Activity: Dose-dependent-effect
[3]
  inhibition: 4%

## CC(C)Oc1cccc(-c2cnc(N)c(NC(C)c3ccccc3)n2)c1 (racemic)
[12]
  Activity: Active
[1]
  inhibition: 21%
[14]
  Activity: Active
[15]
  Activity: Dose-dependent-effect
[3]
  inhibition: 2%

## CC(Nc1nc(-c2cc(Cl)cc(Cl)c2)cnc1N)c1ccccc1 (racemic)
[12]
  Activity: Active
[14]
  Activity: Active
[15]
  Activity: Dose-dependent-effect
[3]
  inhibition: 0%

## CC(Nc1nc(-c2ccc(-c3ccccc3)cc2)cnc1N)c1ccccc1 (racemic)
[3]
  inhibition: 0%

## CC(Nc1nc(-c2ccc(F)cc2)cnc1N)c1ccccc1 (racemic)
[12]
  Activity: Active
[14]
  Activity: Active
[15]
  Activity: Dose-dependent-effect
[3]
  inhibition: 4%

## CC(Nc1nc(-c2ccc(NS(C)(=O)=O)cc2)cnc1N)c1ccccc1 (racemic)
[1]
  inhibition: 38%
[3]
  inhibition: 23%

## CC(Nc1nc(-c2ccc3c(c2)OCO3)cnc1N)c1ccccc1 (racemic)
[3]
  inhibition: 14%

## CC(Nc1nc(-c2cccc(F)c2)cnc1N)c1ccccc1 (racemic)
[12]
  Activity: Active
[14]
  Activity: Active
[15]
  Activity: Dose-dependent-effect
[3]
  inhibition: 3%

## CC(Nc1nc(-c2cccc(N(C)C)c2)cnc1N)c1ccc(S(C)(=O)=O)cc1 (racemic)
[1]
  inhibition: 46%
[3]
  inhibition: 4%

## CC(Nc1nc(-c2cccc(N(C)C)c2)cnc1N)c1cccc(C(F)(F)F)c1 (racemic)
[1]
  inhibition: 44%
[3]
  inhibition: 11%

## CC(Nc1nc(-c2cccc(O)c2)cnc1N)c1ccccc1 (racemic)
[3]
  inhibition: 0%

## CC(Nc1nc(-c2cccc([N+](=O)[O-])c2)cnc1N)c1ccccc1 (racemic)
[12]
  Activity: Active
[1]
  inhibition: 55%
[14]
  Activity: Active
[15]
  Activity: Dose-dependent-effect
[3]
  inhibition: 28%

## CC(Nc1nc(-c2cccc3ccccc23)cnc1N)c1ccccc1 (racemic)
[3]
  inhibition: 14%

## CC(Nc1nc(-c2ccccc2)cnc1N)c1ccccc1 (racemic)
[1]
  inhibition: 38%
[3]
  inhibition: 2%

## CCC(Nc1nc(-c2cccc(N(C)C)c2)cnc1N)c1ccccc1 (racemic)
[1]
  inhibition: 73%
[3]
  inhibition: 24%

## CN(C)c1cccc(-c2cnc(N)c(NC(c3ccccc3)C(C)(C)C)n2)c1 (racemic)
[1]
  inhibition: 58%
[3]
  inhibition: 11%

## COC(=O)c1ccc(-c2cnc(N)c(NC(C)c3ccccc3)n2)cc1 (racemic)
[3]
  inhibition: 36%

## COc1ccc(C(C)Nc2nc(-c3cccc(N(C)C)c3)cnc2N)cc1 (racemic)
[1]
  inhibition: 17%
[3]
  inhibition: 7%

## COc1cccc(C(C)Nc2nc(-c3cccc(N(C)C)c3)cnc2N)c1 (racemic)
[1]
  inhibition: 66%
[3]
  inhibition: 41%

## COc1cccc(OC)c1-c1cnc(N)c(NC(C)c2ccccc2)n1 (racemic)
[12]
  Activity: Active
[14]
  Activity: Active
[15]
  Activity: Dose-dependent-effect
[3]
  inhibition: 0%

## Cc1cc(C)cc(-c2cnc(N)c(NC(C)c3ccccc3)n2)c1 (racemic)
[3]
  inhibition: 2%

## Cc1ccc(C(C)Nc2nc(-c3cccc(N(C)C)c3)cnc2N)cc1 (racemic)
[1]
  inhibition: 11%
[3]
  inhibition: 10%

## O=C(Nc1cnn2ccc(N3CCC[C@@H]3c3cc(F)ccc3F)nc12)N1CC[C@H](O)C1 [LAROTRECTINIB]
[4]
  IC50: > 10000 nM
[6]
  IC50: > 10000 nM
[2]
  IC50: 3.8 nM
